Source: US12655116B2, “Substituted isophthalic acid diamides” (Bayer Aktiengesellschaft, priority 2020, dated 2026)

Legend:
ABUTH [1] = test: Pre-emergence herbicidal action against ABUTH; assay type: in vivo, Abutilon theophrasti; details: Abutilon theophrasti, 504 h; for pest or weed control at 80 g/ha: scored visually after 3 weeks vs untreated controls (100% = plants have died, 0% = like control plants); for pest or weed control at 20 g/ha: dosage 20 g/ha, scored visually after 3 weeks vs untreated controls, 100% = plants have died, 0% = like control plants, read-out: Pre-emergence action against ABUTH (herbicidal activity in percent)
Summary of the method: (§1)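 Pre-emergence soil-surface spray of formulated compound (WP or EC; 600 to 800 l/ha; 0.2% wetting agent) over seeds sown in sandy loam. After 3 weeks under greenhouse conditions, damage is estimated visually in percent against untreated plants.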

AMARE [2] = test: Pre-emergence herbicidal action against AMARE; assay type: in vivo, Amaranthus retroflexus; details: Amaranthus retroflexus, 504 h, scored visually after 3 weeks vs untreated controls, 100% = plants have died, 0% = like control plants
Summary of the method: as §1

ECHCG [3] = test: Pre-emergence herbicidal action against ECHCG; assay type: in vivo, Echinochloa crus-galli; details: Echinochloa crus-galli, 504 h, 80 g/ha
Summary of the method: as §1

MATIN [4] = test: Pre-emergence herbicidal action against MATIN; assay type: in vivo, Matricaria inodora; details: Tripleurospermum inodorum, 504 h; for pest or weed control at 20 g/ha: dosage 20 g/ha; for pest or weed control at 80 g/ha: dosage 80 g/ha
Summary of the method: as §1

PHBPU [5] = test: Pre-emergence herbicidal action against PHBPU; assay type: in vivo, Pharbitis purpurea; details: Ipomoea purpurea, 504 h, dosage 80 g/ha
Summary of the method: as §1

SETVI = test: Pre-emergence herbicidal action against SETVI; assay type: in vivo, Setaria viridis; details: Setaria viridis, 504 h; for pest or weed control at 20 g/ha: dosage 20 g/ha; for pest or weed control at 80 g/ha: dosage 80 g/ha
Summary of the method: as §1

VERPE [6] = test: Pre-emergence herbicidal action against VERPE; assay type: in vivo, Veronica persica; details: Veronica persica, 504 h, dosage 80 g/ha
Summary of the method: as §1

VIOTR [7] = test: Pre-emergence herbicidal action against VIOTR; assay type: in vivo, Viola tricolor; details: Viola tricolor, 504 h; for pest or weed control at 20 g/ha: dosage 20 g/ha; for pest or weed control at 80 g/ha: dosage 80 g/ha
Summary of the method: as §1

DIGSA [8] = test: Pre-emergence herbicidal action against DIGSA; assay type: in vivo, Digitaria sanguinalis; details: Digitaria sanguinalis, 504 h; for pest or weed control at 20 g/ha: dosage 20 g/ha; for pest or weed control at 80 g/ha: dosage 80 g/ha
Summary of the method: as §1

ABUTH [9] = test: Post-emergence herbicidal action against ABUTH; assay type: in vivo, Abutilon theophrasti; details: Abutilon theophrasti, 504 h, visual assessment about 3 weeks after treatment vs untreated controls; for pest or weed control at 5 g/ha: dosage 5 g/ha; for pest or weed control at 20 g/ha: dosage 20 g/ha
Summary of the method: (§2)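 Spray, one-leaf stage: WP or EC compound in water, 600–800 l/ha, 0.2% wetting agent. Plants held about 3 weeks in the greenhouse, then visually rated in percent of kill compared with untreated controls.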

ECHCG [10] = test: Post-emergence herbicidal action against ECHCG; assay type: in vivo, Echinochloa crus-galli; details: Echinochloa crus-galli, 504 h, dosage 20 g/ha
Summary of the method: as §2

MATIN [11] = test: Post-emergence herbicidal action against MATIN; assay type: in vivo, Matricaria inodora; details: Tripleurospermum inodorum, 504 h
Summary of the method: as §2

PHBPU [12] = test: Post-emergence herbicidal action against PHBPU; assay type: in vivo, Pharbitis purpurea; details: Ipomoea purpurea, 504 h
Summary of the method: as §2

VERPE [13] = test: Post-emergence herbicidal action against VERPE; assay type: in vivo, Veronica persica; details: Veronica persica, 504 h, 20 g/ha
Summary of the method: as §2

VIOTR [14] = test: Post-emergence herbicidal action against VIOTR; assay type: in vivo, Viola tricolor; details: Viola tricolor, 504 h
Summary of the method: as §2

DIGSA [15] = test: Post-emergence herbicidal action against DIGSA; assay type: in vivo, Digitaria sanguinalis; details: Digitaria sanguinalis, 504 h
Summary of the method: as §2

ALOMY = test: Pre-emergence herbicidal action against ALOMY; assay type: in vivo, Alopecurus myosuroides; details: Alopecurus myosuroides, 504 h, pre-emergence
Summary of the method: as §1

AVEFA = test: Pre-emergence herbicidal action against AVEFA; assay type: in vivo, Avena fatua; details: Avena fatua, 504 h; 80 g/ha, pre-emergence
Summary of the method: as §1

AMARE [16] = test: Post-emergence herbicidal action against AMARE; assay type: in vivo, Amaranthus retroflexus; details: Amaranthus retroflexus, 504 h, 20 g/ha, visual assessment about 3 weeks after treatment, 100% = plants have died, 0% = like control plants
Summary of the method: as §2

CCNC(=O)c1c(C(F)(F)F)ccc(C(=O)Nc2nnnn2C)c1C1CC1 [Example 1-287]
100%: pest or weed control at 80 g/ha (ABUTH [1]) | pest or weed control at 20 g/ha (ABUTH [1]) | pest or weed control at 20 g/ha (AMARE [2]) | pest or weed control at 80 g/ha (AMARE [2]) | pest or weed control at 20 g/ha (MATIN [4]) | pest or weed control at 80 g/ha (MATIN [4]) | pest or weed control at 80 g/ha (PHBPU [5]) | pest or weed control at 80 g/ha (SETVI) | pest or weed control at 20 g/ha (VIOTR [7]) | pest or weed control at 80 g/ha (VIOTR [7]) | pest or weed control at 20 g/ha (DIGSA [8]) | pest or weed control at 80 g/ha (DIGSA [8]) | pest or weed control at 20 g/ha (ABUTH [9]) | pest or weed control at 20 g/ha (ECHCG [10]) | pest or weed control at 20 g/ha (PHBPU [12]; dosage 20 g/ha) | pest or weed control at 5 g/ha (DIGSA [15]; 5 g/ha) | pest or weed control at 20 g/ha (DIGSA [15])
80%: pest or weed control at 5 g/ha (MATIN [11]; dosage 5 g/ha) | pest or weed control at 20 g/ha (VERPE [13]) | pest or weed control at 20 g/ha (VIOTR [14])
90%: pest or weed control at 80 g/ha (ECHCG [3]) | pest or weed control at 20 g/ha (SETVI) | pest or weed control at 80 g/ha (VERPE [6]) | pest or weed control at 5 g/ha (ABUTH [9]) | pest or weed control at 20 g/ha (MATIN [11]; dosage 20 g/ha) | pest or weed control at 5 g/ha (PHBPU [12]; dosage 5 g/ha)

CCn1nnnc1NC(=O)c1ccc(C(F)F)c(C(=O)NC2CC2)c1Br [Example 2-227]
90%: pest or weed control at 80 g/ha (AVEFA) | pest or weed control at 80 g/ha (PHBPU [5]) | pest or weed control at 20 g/ha (DIGSA [8]) | pest or weed control at 5 g/ha (VIOTR [14]; 5 g/ha)
100%: pest or weed control at 80 g/ha (ABUTH [1]) | pest or weed control at 20 g/ha (ABUTH [1]) | pest or weed control at 80 g/ha (ALOMY; 80 g/ha, scored visually after 3 weeks vs untreated controls (100% = plants have died, 0% = like control plants)) | pest or weed control at 20 g/ha (AMARE [2]) | pest or weed control at 80 g/ha (AMARE [2]) | pest or weed control at 80 g/ha (ECHCG [3]) | pest or weed control at 20 g/ha (MATIN [4]) | pest or weed control at 80 g/ha (MATIN [4]) | pest or weed control at 20 g/ha (SETVI) | pest or weed control at 80 g/ha (SETVI) | pest or weed control at 80 g/ha (VERPE [6]) | pest or weed control at 20 g/ha (VIOTR [7]) | pest or weed control at 80 g/ha (VIOTR [7]) | pest or weed control at 80 g/ha (DIGSA [8]) | pest or weed control at 5 g/ha (ABUTH [9]) | pest or weed control at 20 g/ha (ABUTH [9]) | pest or weed control at 20 g/ha (AMARE [16]) | pest or weed control at 20 g/ha (VIOTR [14]) | pest or weed control at 20 g/ha (DIGSA [15])
80%: pest or weed control at 20 g/ha (ALOMY; 20 g/ha, scored visually after 3 weeks, 100% = plants have died, 0% = like control plants) | pest or weed control at 20 g/ha (ECHCG [10]) | pest or weed control at 20 g/ha (VERPE [13])
